Experimental data reported in US8242151B2, “Tricyclic compounds” (Kyowa Hakko Kirin Co., Ltd., priority 2007, dated 2012).

Experiments:
[1] = tested on: spontaneously hypertensive rats (SHR); test: Antihypertensive action by telemetry method; format: in vivo, rat; conditions: oral once a day for 4 days, 24 hr averages
Text: A telemetry transmitter was indwelled in the abdominal artery of spontaneously hypertensive rats (SHR), and the blood pressure and heart rate were monitored. The rats were acclimated and reared for 4 weeks or more, and only the rats with hypertension were used for the test. Before drug administration, the rats were grouped such that the blood pressure and heart rate of each rat would be of the same levels between the groups. A solvent (0.5% methylcellulose solution) and a test compound were repeatedly administered orally once a day for 4 days. The average systolic blood pressure for 24 hr, average diastolic blood pressure for 24 hr and average heart rate for 24 hr were calculated on each administration day.

[2] = target: T1, GAL4-PPARγ chimeric nuclear receptor (human PPARγ ligand binding region) (Homo sapiens, UniProt P37231); test: Transactivation assay of PPARγ by transient gene transfer (GAL4-PPARγ luciferase reporter); format: cell-based; conditions: HEK293EBNA cells, 24 hr; concentration showing 50% of efficacy; activity relative to pioglitazone 10 μmol/L = 100%
T1 construct: expressed in transfected cells; host or cells: HEK293EBNA cells
T1 sequence (P37231 174-475 isoform P37231-2): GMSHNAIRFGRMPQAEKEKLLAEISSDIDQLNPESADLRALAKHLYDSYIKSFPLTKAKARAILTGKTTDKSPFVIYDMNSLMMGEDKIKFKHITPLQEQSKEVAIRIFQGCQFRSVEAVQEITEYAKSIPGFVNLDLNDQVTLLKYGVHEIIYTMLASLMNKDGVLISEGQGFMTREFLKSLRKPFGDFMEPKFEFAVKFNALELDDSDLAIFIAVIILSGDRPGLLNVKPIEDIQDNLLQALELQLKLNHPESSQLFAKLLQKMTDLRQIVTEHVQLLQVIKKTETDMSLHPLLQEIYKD
Method: The agonist activity of compound (I) to PPARγ was determined by a transactivation assay method using a chimeric nuclear receptor of a DNA binding region of a yeast transcription factor GAL4 and a PPARγ ligand binding region. Specifically, the PPARγ agonist activity of compound (I) was evaluated by the following method based on the method of Lehmann et al. (J Biol. Chem., 1995, vol. 270, page 12953).
HEK293EBNA cells cultured in Dulbecco's Modified Eagle medium (Invitrogen) containing 10 v/v % fetal calf serum (Invitrogen) were used. 30 mL of the above-mentioned cells (density: 1×10^5 cells/mL) were inoculated in a […] culture dish (Iwaki Glass), and cultured overnight. Using SuperFect Transfection Reagent (QIAGEN), a plasmid expressing a GAL4-PPARγ chimeric nuclear receptor fusing 174-475 amino acids, which are human PPARγ ligand binding region, and 1-147 amino acids, which are GAL4 DNA binding region, and a reporter plasmid expressing a GAL4 responsive luciferase were transiently introduced into the cells at a proportion of 4:1. After 5 hr from gene introduction, the cells were detached from the culture dish, and the detached cells (density: 2×10^4 cells/mL) were inoculated by 100 μL in each well of a 96 well white plate (SUMITOMO BAKELITE), and cultured overnight. The medium was removed, compound (I) diluted in various concentrations with serum-free Dulbecco's Modified Eagle medium was added by 100 μL, and the mixture was reacted under a 5% carbon dioxide gas stream (5% CO2) at 37° C. for 24 hr. On the other hand, as a positive control, 10 μmol/L of pioglitazone (100 μL) was added, and the mixture was reacted under a 5% carbon dioxide gas stream (5% CO2) at 37° C. for 24 hr. As a substrate of luciferase, 100 μL of Steady-Glo (Promega) was added to each well and the mixture was thoroughly stirred. Immediately thereafter, the chemical luminescence due to luciferase was measured using TopCount NTX (Packard).
The agonist activity (activity rate (%)) of compound (I) to PPARγ was calculated according to the following formula, as a relative activity when the agonist activity on addition of pioglitazone (10 μmol/L) was 100%.

[3] = tested on: spontaneously hypertensive rats (SHR); test: Antihypertensive action by tail cuff method; format: in vivo, rat; conditions: oral once a day for 7 days, about 4 to 9 hr after final administration
Method: 18- to 22-week-old spontaneously hypertensive rats (SHR) were used.
Before drug administration, the body weight, blood pressure and heart rate of each rat were measured, and the rats were grouped such that these values are almost the same between groups. A solvent (0.5% methylcellulose solution) and a test compound were repeatedly administered orally once a day for 7 days. At about 4 to 9 hr after the final administration, systolic blood pressure and heart rate were non-invasively measured according to the following.
The rats were placed in a cylindrical restrainer, heated to 37° C., and blood pressure and heart rate were measured under resting state using a Tail Cuff Method. For the measurement, a non-invasive blood pressure measurement apparatus (PS-600, Riken Kaihatsu, Tokyo) was used. The blood pressure and heart rate of each rat was measured 5 times, and the average was taken as the value of each rat.

EC50 [2] [nM] | Structure (SMILES) | antihypertensive action (blood pressure, telemetry) [1] | antihypertensive action (systolic blood pressure, tail cuff) [3]
1840 | CCc1nc2c(Cl)ccnc2n1Cc1ccc2c(c1)COc1ccccc1/C2=C(/C)c1noc(=O)[nH]1 [Compound 137, (Z)-8-(7-chloro-2-ethyl-3H-imidazo[4,5-b]pyridin-3-yl)methyl-11-[1-(5-oxo-4,5-dihydro-1,2,4-oxadiazol-3-yl)ethylidene]-6,11-dihydrodibenzo[b,e]oxepine] | antihypertensive action | antihypertensive action
1020 | CCc1nc2c(C)ccnc2n1Cc1ccc2c(c1)CCc1ccccc1/C2=C(/C)c1noc(=O)[nH]1 [Compound 42, (E)-2-(2-ethyl-7-methyl-3H-imidazo[4,5-b]pyridin-3-yl)methyl-5-[1-(5-oxo-4,5-dihydro-1,2,4-oxadiazol-3-yl)ethylidene]-10,11-dihydro-5H-dibenzo[a,d]cycloheptene] | antihypertensive action | antihypertensive action
326 | CCc1nc2c(C)cc(C)nc2n1Cc1ccc2c(c1)CCc1ccccc1/C2=C\c1noc(=O)[nH]1 [Compound 29, (E)-2-(2-ethyl-5,7-dimethyl-3H-imidazo[4,5-b]pyridin-3-yl)methyl-5-(5-oxo-4,5-dihydro-1,2,4-oxadiazol-3-yl)methylene-10,11-dihydro-5H-dibenzo[a,d]cycloheptene] | antihypertensive action | antihypertensive action
